Legend:
[1] = target: CYP2D6 (Homo sapiens, UniProt P10635); test: Inhibition of CYP2D6 in human liver microsomes at 1 uM preincubated for 5 mins followed by NADPH addition by LC-MS/MS analysis relative to control; type: ADME, Microsome
[2] = Microsomal stability in rat liver microsomes assessed as parent compound remaining at 1 uM measured upto 30 mins in presence of NADPH by LC-MS/MS analysis; type: ADME, Microsome; conditions: read-out: Stability
[3] = Half life in Sprague-Dawley rat at 1 mg/kg, iv measured upto 24 hrs by LC-MS/MS analysis; type: ADME, organism-based; conditions: in vivo
[4] = Volume of distribution at steady state in Sprague-Dawley rat at 1 mg/kg, iv measured upto 24 hrs by LC-MS/MS analysis; type: ADME, organism-based; conditions: in vivo, read-out: Vdss
[5] = Cmax in Sprague-Dawley rat at 1 mg/kg, iv measured upto 24 hrs by LC-MS/MS analysis; type: ADME, organism-based; design: dose 1 mg/kg, time < 24 hrs, route iv; conditions: in vivo
[6] = Cmax in Sprague-Dawley rat at 10 mg/kg, po administered as suspension measured upto 24 hrs by LC-MS/MS analysis; type: ADME, organism-based; design: dose 10 mg/kg, time < 24 hrs, route po; conditions: in vivo
[7] = AUClast in Sprague-Dawley rat at 10 mg/kg, po administered as suspension measured upto 24 hrs by LC-MS/MS analysis; type: ADME, organism-based; design: dose 10 mg/kg, time < 24 hrs, route po; conditions: in vivo
[8] = Clearance in Sprague-Dawley rat at 10 mg/kg, po administered as solution measured upto 24 hrs by LC-MS/MS analysis; type: ADME, organism-based; conditions: in vivo
[9] = Effect on parathyroid hormone in overnight fasted Sprague-Dawley rat assessed as reduction in plasma PTH level at 10 mg/kg, po measured after 4 hrs of post treatment by sandwich ELISA analysis (reference value: 18%); type: functional; design: scale not given: the % may be the effect or the level left
[10] = Effect on parathyroid hormone in overnight fasted Sprague-Dawley rat assessed as reduction in plasma PTH level at 3 mg/kg, po measured after 4 hrs of post treatment by sandwich ELISA analysis; type: functional; design: scale not given: the % may be the effect or the level left
[11] = Effect on parathyroid hormone in overnight fasted Sprague-Dawley rat assessed as reduction in plasma PTH level at 3 mg/kg, po measured after 6 hrs of post treatment by sandwich ELISA analysis; type: functional; design: scale not given: the % may be the effect or the level left
[12] = Effect on parathyroid hormone in overnight fasted Sprague-Dawley rat assessed as reduction in plasma PTH level at 3 mg/kg, po measured after 0.5 hrs of post treatment by sandwich ELISA analysis; type: functional; design: scale not given: the % may be the effect or the level left
[13] = Effect on parathyroid hormone in overnight fasted adenine diet-induced chronic kidney disease Wistar rat model plasma assessed as reduction in PTH level at 1 mg/kg, po measured after 1 hrs of post treatment by sandwich ELISA analysis; type: functional; design: scale not given: the % may be the effect or the level left
[14] = tested on: Rattus norvegicus; test: Acute effect on parathyroid hormone in overnight fasted adenine diet-induced chronic kidney disease Wistar rat model assessed as reduction in plasma PTH level at 3 mg/kg, po measured after 1 hrs of post treatment by sandwich ELISA analysis; type: functional; design: scale not given: the % may be the effect or the level left
[15] = tested on: Rattus norvegicus; test: Acute effect on parathyroid hormone in overnight fasted adenine diet-induced chronic kidney disease Wistar rat model assessed as reduction in plasma PTH level at 3 mg/kg, po measured after 2 hrs of post treatment by sandwich ELISA analysis; type: functional; design: scale not given: the % may be the effect or the level left
[16] = tested on: Rattus norvegicus; test: Acute effect on parathyroid hormone in overnight fasted adenine diet-induced chronic kidney disease Wistar rat model assessed as reduction in plasma PTH level at 10 mg/kg, po measured after 4 hrs of post treatment by sandwich ELISA analysis; type: functional; design: scale not given: the % may be the effect or the level left
[17] = tested on: Rattus norvegicus; test: Chronic effect on parathyroid hormone in overnight fasted adenine diet-induced chronic kidney disease Wistar rat model plasma assessed as reduction in plasma PTH level at 3 mg/kg, po qd measured after 27 days of post treatment by sandwich ELISA analysis; type: functional; design: scale not given: the % may be the effect or the level left; conditions: time 27 day
[18] = tested on: Rattus norvegicus; test: Subchronic effect on parathyroid hormone in overnight fasted adenine diet-induced chronic kidney disease Wistar rat model plasma assessed as reduction in plasma PTH level at 0.3 mg/kg, po qd measured after 27 days of post treatment by sandwich ELISA analysis; type: functional; design: scale not given: the % may be the effect or the level left; conditions: time 27 day
[19] = AUC(0 to 24 hrs) in Sprague-Dawley rat at 100 mg/kg; type: ADME, organism-based; design: dose 100 mg/kg; conditions: in vivo
[20] = Tmax in Sprague-Dawley rat at 300 mg/kg; type: ADME, organism-based; conditions: in vivo
[21] = AUC(0 to 24 hrs) in Sprague-Dawley rat at 300 mg/kg; type: ADME, organism-based; design: dose 300 mg/kg; conditions: in vivo
[22] = Metabolic stability in dog liver S9 fraction measured upto 60 mins by LC-MS/MS method; type: ADME, subcellular, Canis lupus familiaris; conditions: read-out: Stability
[23] = Metabolic stability in rat liver cytosol measured upto 60 mins by LC-MS/MS method; type: ADME, subcellular; conditions: read-out: Stability
[24] = Stability in mouse plasma measured up to 4 hrs by LC-MS/MS method; type: ADME, cell-free; conditions: read-out: Stability
[25] = Stability in dog plasma measured up to 4 hrs by LC-MS/MS method; type: ADME, cell-free, Canis lupus familiaris; conditions: read-out: Stability
[26] = Stability in monkey plasma measured up to 4 hrs by LC-MS/MS method; type: ADME, cell-free, Macaca mulatta; conditions: rhesus monkey, read-out: Stability
[27] = Apparent permeability across apical to basolateral side in human Caco-2 cells at 5 uM measured after 30 to 120 mins by LC-MS/MS analysis; type: ADME, cell-based; conditions: time 30-120 min
[28] = Chemical stability of the compound in 0.1N NaOH measured after 0.5 to 4 hrs; type: physicochemical; conditions: time 0.5-4 hrs
[29] = Plasma clearance in Sprague-Dawley rat at 1 mg/kg, iv measured upto 24 hrs by LC/MS-MS analysis; type: ADME, organism-based
[30] = Plasma clearance in Beagle dog at 1 mg/kg, iv measured upto 24 hrs by LC/MS-MS analysis; type: ADME, organism-based, Canis lupus familiaris
[31] = Volume of distribution at steady state in BALB/c mouse at 1 mg/kg, iv measured upto 24 hrs by LC/MS-MS analysis; type: ADME, organism-based; conditions: in vivo, read-out: Vdss
[32] = Half life in Beagle dog at 1 mg/kg, iv measured upto 24 hrs by LC/MS-MS analysis; type: ADME, organism-based, Canis lupus familiaris; conditions: in vivo
[33] = Drug excretion in rat assessed as drug recovery in feces at 1 mg/kg, iv; type: ADME, organism-based; conditions: faeces, read-out: Drug recovery
[34] = AUC in mouse at 50 mg/kg per day, po via gavage administered for 13 weeks; type: ADME, organism-based; design: dose 50 mg/kg, time 13 weeks, route po; conditions: in vivo
[35] = Cmax in human at 25 mg/kg, po administered as single dose; type: ADME, organism-based; design: dose 25 mg/kg, route po; conditions: in vivo
[36] = target: Delta-type opioid receptor (Homo sapiens) (UniProt P41143); test: Inhibition of human recombinant DOP receptor at 10 uM relative to control
Chain of Delta-type opioid receptor (Homo sapiens) (P41143 whole entry): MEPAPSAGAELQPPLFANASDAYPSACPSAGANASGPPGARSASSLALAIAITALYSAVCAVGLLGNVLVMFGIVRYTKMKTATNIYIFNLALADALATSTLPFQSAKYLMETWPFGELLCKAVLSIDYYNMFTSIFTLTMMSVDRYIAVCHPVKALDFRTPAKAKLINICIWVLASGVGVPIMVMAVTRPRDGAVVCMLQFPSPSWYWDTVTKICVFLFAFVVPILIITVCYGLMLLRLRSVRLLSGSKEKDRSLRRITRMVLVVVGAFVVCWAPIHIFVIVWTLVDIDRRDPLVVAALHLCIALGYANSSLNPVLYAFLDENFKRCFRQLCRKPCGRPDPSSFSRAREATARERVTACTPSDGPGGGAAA

[37] = target: T1, Adenosine receptor A1 (Homo sapiens) (UniProt P30542); test: Inhibition of human recombinant A1 receptor at 10 uM relative to control
T1 sequence (whole entry): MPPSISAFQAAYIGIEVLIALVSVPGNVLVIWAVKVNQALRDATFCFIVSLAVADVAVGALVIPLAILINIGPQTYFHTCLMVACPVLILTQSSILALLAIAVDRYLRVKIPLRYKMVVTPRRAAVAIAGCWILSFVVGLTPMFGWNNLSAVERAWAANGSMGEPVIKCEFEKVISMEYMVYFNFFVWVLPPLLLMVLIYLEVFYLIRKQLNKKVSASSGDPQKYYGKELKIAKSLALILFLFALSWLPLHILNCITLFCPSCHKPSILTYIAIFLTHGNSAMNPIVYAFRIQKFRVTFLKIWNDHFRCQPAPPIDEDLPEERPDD

Chain of CYP2D6 (P10635 whole entry): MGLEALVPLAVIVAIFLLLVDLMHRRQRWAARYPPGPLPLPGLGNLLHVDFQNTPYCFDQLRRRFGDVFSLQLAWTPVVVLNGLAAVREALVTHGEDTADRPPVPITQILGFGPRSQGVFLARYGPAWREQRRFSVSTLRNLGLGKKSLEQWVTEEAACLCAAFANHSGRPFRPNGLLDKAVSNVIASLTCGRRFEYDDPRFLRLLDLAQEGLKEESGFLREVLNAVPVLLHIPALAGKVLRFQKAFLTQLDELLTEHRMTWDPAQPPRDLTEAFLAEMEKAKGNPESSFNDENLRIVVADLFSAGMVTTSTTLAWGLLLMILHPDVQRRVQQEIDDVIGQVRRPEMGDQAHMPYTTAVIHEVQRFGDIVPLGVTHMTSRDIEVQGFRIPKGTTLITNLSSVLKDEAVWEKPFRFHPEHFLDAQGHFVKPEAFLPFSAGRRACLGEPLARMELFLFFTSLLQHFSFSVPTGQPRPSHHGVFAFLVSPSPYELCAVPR

SMILES: Cc1ccc([C@@H]2C[C@H](CN[C@H](C)c3cccc4ccccc34)Oc3ccccc32)cc1C(=O)O.Cl
- inhibition at 1 µM [1]: 4%
- remaining at 0.5 h, 1 µM [2]: 77%
- half-life [3]: 4 h
- Vd [4]: 1 L/kg
- Cmax [5]: 2 µM
- Cmax [6]: 4 µM
- AUC(0-t) at 24 h [7]: 23 µM·h
- CL/F [8]: 6 mL/min/kg
- Activity [9]: 88%
- Activity [10]: 74%
- Activity [11]: 18%
- Activity [12]: 100%
- Activity [13]: 95%
- Activity [14]: 96%
- Activity [15]: 96%
- Activity [16]: 97%
- Activity [17]: 83%
- Activity [18]: 73%
- AUC(0-t) [19]: 426 µM·h
- Tmax [20]: 1 h
- AUC(0-t) [21]: 1020 µM·h
- remaining at 1 h [22]: > 80%
- remaining at 1 h [23]: > 80%
- remaining at 4 h [24]: > 80%
- remaining at 4 h [25]: > 80%
- remaining at 4 h [26]: > 80%
- Papp A→B at 5 µM [27]: 20 ×10⁻⁶ cm/s
- Stability [28]: Stable
- clearance [29]: 4 mL/min/kg
- clearance [30]: 2 mL/min/kg
- Vd [31]: 0.6 L/kg
- half-life [32]: 5 h
- dose excreted [33]: 10%
- AUC at 2184 h [34]: 321 µg·h/mL
- Cmax [35]: 367 ng/mL
- inhibition [36]: > 50%
- inhibition [37]: > 50%

— ChEMBL document CHEMBL5346964, “Discovery of LNP1892: A Precision Calcimimetic for the Treatment of Secondary Hyperparathyroidism” (J Med Chem, 2023)
